We go through one compound from paper PMC3076215 (Biochemistry, 2011).

This assay concerns the target T1, Carbon monoxide dehydrogenase (CODH) (Afipia carboxidovorans, UniProt P19920).
T1 sequence (P19920 1-288): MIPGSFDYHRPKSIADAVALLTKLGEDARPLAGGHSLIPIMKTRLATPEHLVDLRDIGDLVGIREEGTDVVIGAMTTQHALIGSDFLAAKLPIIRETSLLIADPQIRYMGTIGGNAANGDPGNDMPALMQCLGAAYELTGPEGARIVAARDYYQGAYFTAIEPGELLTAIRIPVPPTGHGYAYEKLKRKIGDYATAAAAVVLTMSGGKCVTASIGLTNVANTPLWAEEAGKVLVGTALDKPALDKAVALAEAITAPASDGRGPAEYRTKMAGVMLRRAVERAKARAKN
T1 sequence (P19919 1-809 partner): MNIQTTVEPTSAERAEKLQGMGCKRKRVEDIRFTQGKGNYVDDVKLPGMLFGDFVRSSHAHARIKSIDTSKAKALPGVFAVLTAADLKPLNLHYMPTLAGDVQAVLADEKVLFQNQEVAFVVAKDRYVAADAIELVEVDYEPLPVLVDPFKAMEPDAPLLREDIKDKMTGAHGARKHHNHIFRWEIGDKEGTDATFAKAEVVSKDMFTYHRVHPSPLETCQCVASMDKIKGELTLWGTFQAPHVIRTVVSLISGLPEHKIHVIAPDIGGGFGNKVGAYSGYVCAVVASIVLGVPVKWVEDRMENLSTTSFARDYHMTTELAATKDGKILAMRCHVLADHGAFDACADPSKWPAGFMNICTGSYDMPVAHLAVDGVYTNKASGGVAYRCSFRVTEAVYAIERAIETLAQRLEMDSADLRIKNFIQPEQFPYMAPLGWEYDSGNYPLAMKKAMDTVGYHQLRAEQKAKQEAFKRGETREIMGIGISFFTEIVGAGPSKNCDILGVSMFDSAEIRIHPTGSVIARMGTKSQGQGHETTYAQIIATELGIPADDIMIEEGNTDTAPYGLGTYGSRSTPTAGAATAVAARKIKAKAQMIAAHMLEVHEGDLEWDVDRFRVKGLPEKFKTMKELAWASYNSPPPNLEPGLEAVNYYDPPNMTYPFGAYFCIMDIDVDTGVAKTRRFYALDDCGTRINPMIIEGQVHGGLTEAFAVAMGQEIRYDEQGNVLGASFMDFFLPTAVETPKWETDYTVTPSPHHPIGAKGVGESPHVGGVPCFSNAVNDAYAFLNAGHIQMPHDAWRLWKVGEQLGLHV
T1 sequence (P19921 1-166 partner): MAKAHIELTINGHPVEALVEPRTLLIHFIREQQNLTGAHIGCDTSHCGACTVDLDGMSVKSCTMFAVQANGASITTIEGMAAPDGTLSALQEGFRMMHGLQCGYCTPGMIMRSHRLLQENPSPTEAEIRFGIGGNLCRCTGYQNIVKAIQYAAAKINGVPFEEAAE
Briefly: UV-vis difference titration at […] nm. The format is binding.

Usually Kd stands for a measure of binding affinity in units of concentration. A higher Kd goes with weaker binding.

The structures appear in SMILES notation.

`O=C1C=CC(=O)C=C1` [1,4-benzoquinone] registered a dissociation constant (Kd) of 100 µM.
